From publication PMC6155437 (Molecules : A Journal of Synthetic Chemistry and Natural …, 2017)

Key:
Type in all cases: in vitro ADME
CYP2A6 = target: T1, CYP2A6 (Homo sapiens, UniProt P11509); assay: CYP2A6 coumarin 7-hydroxylase inhibition in pooled human liver microsomes (substrate cocktail, LC-MS/MS); details: at 50 µM
T1 construct: pooled human liver microsomes (0.2 mg/mL); tissue Corning Life Sciences; host or cells: pooled human liver microsomes (150 donors)
T1 sequence (P11509 1-494): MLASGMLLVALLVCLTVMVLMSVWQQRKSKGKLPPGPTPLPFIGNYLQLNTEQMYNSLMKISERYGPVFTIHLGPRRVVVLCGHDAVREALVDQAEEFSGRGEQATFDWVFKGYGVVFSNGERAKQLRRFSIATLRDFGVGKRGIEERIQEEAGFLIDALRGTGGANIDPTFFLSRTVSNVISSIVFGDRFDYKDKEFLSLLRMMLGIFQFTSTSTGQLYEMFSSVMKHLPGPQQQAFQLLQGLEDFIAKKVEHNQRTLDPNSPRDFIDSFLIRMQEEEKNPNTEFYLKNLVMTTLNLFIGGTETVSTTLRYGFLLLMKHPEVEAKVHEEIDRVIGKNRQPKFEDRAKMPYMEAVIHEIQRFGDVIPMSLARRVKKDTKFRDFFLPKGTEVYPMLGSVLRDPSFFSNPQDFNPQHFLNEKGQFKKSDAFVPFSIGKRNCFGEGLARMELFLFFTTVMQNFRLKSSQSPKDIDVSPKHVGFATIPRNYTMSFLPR
Procedure: (§1) After a 3-min pre-incubation at 37 °C, the reactions were initiated by addition of NADPH and incubation proceeded for 15 min at 37 °C in a shaking water bath. […] The incubation mixtures were centrifuged (13,000× g, 4 min, 4 °C). All assays were performed in triplicate and mean values were used in calculations.
(§2) Each reaction was initiated by adding the seven-CYP probe substrate cocktail.
(§3) The metabolites formed from CYP substrates were quantified simultaneously by a LC-MS/MS method described previously. The ESI source settings in positive-ion mode for metabolite ionization were: capillary voltage, 4200 V; vaporizer temperature, 350 °C; capillary temperature, 330 °C; sheath gas pressure, 35 psi; and auxiliary gas pressure, 15 psi. […] Analytical data were processed using Xcalibur software (version 2.1, Thermo Scientific).
(§4) The apparent kinetic parameters for inhibitory potential (Ki and kinact values) and inhibition mode were estimated from the fitted curves using the Enzyme Kinetics program (ver. 1.1; Systat Software Inc., San Jose, CA, USA).

CYP2B6 = target: T2, CYP2B6 (Homo sapiens, UniProt P20813); assay: CYP2B6 bupropion hydroxylase inhibition in ultrapool human liver microsomes; details: at 50 µM
T2 construct: pooled human liver microsomes (0.2 mg/mL); tissue Corning Life Sciences; host or cells: pooled human liver microsomes (150 donors)
T2 sequence (P20813 1-491): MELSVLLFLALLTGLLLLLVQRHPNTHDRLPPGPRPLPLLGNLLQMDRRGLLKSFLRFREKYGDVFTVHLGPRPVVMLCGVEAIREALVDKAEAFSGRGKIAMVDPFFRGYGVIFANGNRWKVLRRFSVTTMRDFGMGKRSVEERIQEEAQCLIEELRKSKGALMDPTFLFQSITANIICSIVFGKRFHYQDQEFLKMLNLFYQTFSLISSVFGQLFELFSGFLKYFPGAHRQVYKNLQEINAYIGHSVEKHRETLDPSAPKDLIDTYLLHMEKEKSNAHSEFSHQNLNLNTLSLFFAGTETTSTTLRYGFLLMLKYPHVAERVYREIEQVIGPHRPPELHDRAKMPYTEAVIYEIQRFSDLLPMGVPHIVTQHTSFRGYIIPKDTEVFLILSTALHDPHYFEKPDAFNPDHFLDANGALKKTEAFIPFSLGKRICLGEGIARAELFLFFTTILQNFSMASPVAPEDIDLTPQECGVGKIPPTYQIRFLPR
Procedure: All incubations were performed in triplicate, and average values were used.
as §3, §4

CYP2C19 = target: T3, CYP2C19 (Homo sapiens, UniProt P33261); assay: CYP2C19 [S]-mephenytoin 4′-hydroxylase inhibition in human liver microsomes; details: at 50 µM
T3 construct: pooled human liver microsomes (0.2 mg/mL); tissue Corning Life Sciences; host or cells: pooled human liver microsomes (150 donors)
T3 sequence (P33261 whole entry): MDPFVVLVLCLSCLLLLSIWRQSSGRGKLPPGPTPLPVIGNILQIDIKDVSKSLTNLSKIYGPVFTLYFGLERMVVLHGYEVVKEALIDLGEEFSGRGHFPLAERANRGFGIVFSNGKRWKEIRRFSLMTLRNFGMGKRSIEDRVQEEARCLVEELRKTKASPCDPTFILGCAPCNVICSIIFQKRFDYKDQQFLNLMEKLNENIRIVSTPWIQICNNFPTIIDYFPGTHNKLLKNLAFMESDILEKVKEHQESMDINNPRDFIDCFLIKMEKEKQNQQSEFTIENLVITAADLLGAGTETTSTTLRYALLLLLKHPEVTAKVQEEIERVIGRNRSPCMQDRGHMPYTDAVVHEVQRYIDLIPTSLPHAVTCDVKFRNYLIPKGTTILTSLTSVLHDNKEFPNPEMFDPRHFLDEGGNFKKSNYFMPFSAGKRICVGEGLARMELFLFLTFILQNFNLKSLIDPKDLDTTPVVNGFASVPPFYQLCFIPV
Procedure: as §1, §2, §3, §4

CYP2D6 = target: T4, CYP2D6 (Homo sapiens, UniProt P10635); assay: CYP2D6 bufuralol 1′-hydroxylase inhibition in human liver microsomes; details: at 50 µM
T4 construct: pooled human liver microsomes (0.2 mg/mL); tissue Corning Life Sciences; host or cells: pooled human liver microsomes (150 donors)
T4 sequence (P10635 whole entry): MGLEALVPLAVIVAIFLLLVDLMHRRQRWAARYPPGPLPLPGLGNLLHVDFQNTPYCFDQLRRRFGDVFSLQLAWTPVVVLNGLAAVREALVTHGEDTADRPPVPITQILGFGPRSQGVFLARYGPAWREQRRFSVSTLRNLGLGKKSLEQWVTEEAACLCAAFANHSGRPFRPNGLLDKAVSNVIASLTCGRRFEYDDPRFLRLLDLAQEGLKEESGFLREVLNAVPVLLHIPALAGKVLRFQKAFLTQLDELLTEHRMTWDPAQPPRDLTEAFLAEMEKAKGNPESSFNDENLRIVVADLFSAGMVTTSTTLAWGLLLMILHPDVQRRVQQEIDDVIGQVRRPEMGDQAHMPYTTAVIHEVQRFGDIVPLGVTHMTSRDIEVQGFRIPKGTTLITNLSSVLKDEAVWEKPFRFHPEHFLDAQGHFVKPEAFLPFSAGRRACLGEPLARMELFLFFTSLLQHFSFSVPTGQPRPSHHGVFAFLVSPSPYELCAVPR
Procedure: as §1, §2, §3, §4

UGT2B7 = target: T5, UGT2B7 (Homo sapiens, UniProt P16662); assay: UGT2B7 naloxone 3-β-D-glucuronidation inhibition in human liver microsomes
T5 construct: tissue Corning Life Sciences; host or cells: pooled human liver microsomes (150 donors)
T5 sequence (P16662 24-529): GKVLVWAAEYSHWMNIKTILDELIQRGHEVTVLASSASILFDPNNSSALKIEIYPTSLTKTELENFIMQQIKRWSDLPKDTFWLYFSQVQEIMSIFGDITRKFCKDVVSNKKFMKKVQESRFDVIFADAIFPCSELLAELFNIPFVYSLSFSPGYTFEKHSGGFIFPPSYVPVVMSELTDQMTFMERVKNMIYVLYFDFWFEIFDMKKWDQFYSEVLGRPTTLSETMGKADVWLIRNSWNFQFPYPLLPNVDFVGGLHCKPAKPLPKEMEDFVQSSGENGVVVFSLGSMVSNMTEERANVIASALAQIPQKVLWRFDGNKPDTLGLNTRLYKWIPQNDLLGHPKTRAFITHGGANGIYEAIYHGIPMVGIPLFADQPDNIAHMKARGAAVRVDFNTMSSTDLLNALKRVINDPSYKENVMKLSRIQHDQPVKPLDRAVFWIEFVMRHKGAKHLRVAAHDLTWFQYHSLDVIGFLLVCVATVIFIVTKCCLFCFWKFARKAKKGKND
Procedure: After 3 min of pre-incubation at 37 °C, the reactions were initiated by addition of UDPGA; incubation continued for 60 min at 37 °C in a shaking water bath. The reaction was stopped by placing the tubes on ice and adding 50 µL ice-cold acetonitrile containing internal standards (propofol glucuronide for chenodeoxycholic acid 24-acyl-β-glucuronide and mycophenolic acid glucuronide, and meloxicam for SN-38 glucuronide, trifluoperazine glucuronide, N-acetylserotonin β-D-glucuronide, and naloxone 3-β-D-glucuronide). The incubation mixtures were centrifuged (13,000× g, 4 min, 4 °C). All assays were performed in triplicate and average values were used in calculations.
The reactions were initiated by addition of UDPGA at 37 °C and stopped after 60 min by placing the incubation tubes on ice and adding 100 μL of ice-cold methanol containing propofol glucuronide (internal standard for UGT1A3) or meloxicam (internal standard for UGT2B7). The incubation mixtures were centrifuged (13,000× g, 4 min, 4 °C), and then, 50 μL of the supernatant was diluted with 50 μL of water. Aliquots (5 μL) of the diluted supernatants were analyzed by LC-MS/MS.
The metabolites formed from the six UGT cocktail substrates were measured simultaneously using the LC-MS/MS method. The ESI source settings in both positive- and negative-ion modes for metabolite ionization were: capillary voltage, 4200 V; vaporizer temperature, 350 °C; capillary temperature, 330 °C; sheath gas pressure, 35 psi; and auxiliary gas pressure, 15 psi. […] Data were processed using Xcalibur software.
as §4

In the case of `O=C(c1cccc2ccccc12)c1cn(CCCCCF)c2ccccc12` [AM-2201, 1-(5-fluoropentyl-1H-indol-3-yl)-(naphthalene-1-yl)methanone], the “inhibition of CYP2A6-mediated coumarin 7-hydroxylation” value (CYP2A6) is reported as “negligibly inhibited”, the “inhibition of CYP2B6-mediated bupropion hydroxylation” value (CYP2B6) is reported as “negligibly inhibited” and the “inhibition of CYP2C19-mediated [S]-mephenytoin 4′-hydroxylation” value (CYP2C19) is reported as “negligibly inhibited”. The “inhibition of CYP2D6-mediated bufuralol 1′-hydroxylation” value (CYP2D6) was “negligibly inhibited”, the Ki (UGT2B7) was 10 µM and the IC50 (UGT2B7; IC50, UGT2B7-catalyzed naloxone 3-glucuronidation, abstract) was 10 µM. For the same compound, the IC50 (UGT2B7; IC50, UGT2B7 naloxone 3-β-D-glucuronidation, 1 μM naloxone, human liver microsomes) was 14.5 µM and the Inhibition Mode (UGT2B7; UGT2B7 naloxone 3-β-D-glucuronidation) was “mixed inhibition”.
